Experiments:
[1] = Chemical hydrolysis in aqueous phosphate buffer (PBS, pH 7.3); type: physicochemical; conditions: phosphate buffered saline (PBS); aqueous 25 mM phosphate buffer, pH 7.3, 37 °C; removal of AB group; n.h. = no hydrolysis observed through cleavage of AB-mask; read-out: PBS pH 7.3 t 1/2 (converted)
Protocol: γ‐(AB,alkyl)‐NTP prodrugs 6 and γ‐alkyl‐NTPs 7 were incubated in aqueous phosphate buffer (PBS, 25 mM, pH 7.3), or were exposed to pig liver esterase (PLE) in phosphate buffer (PBS) and to human CD4^+ T‐lymphocyte cell extracts to study their stability and the product distribution. The hydrolysis mixtures were analyzed by means of analytical rp‐18‐HPLC. The calculated half‐lives of prodrugs 6 (Table 1, t 1/2) reflect the removal of the bioreversible AB group to yield γ‐alkyl‐NTPs 7. Possible hydrolysis pathways and products are summarized in Scheme 4.
As hydrolysis products, a predominant formation of γ‐alkyl‐d4TTPs 7 and a very small amount of d4TDP […] was detected (approximately 3 %). After consumption of the starting material, no further increase of d4TDP concentration was observed. This supports the hypothesis that only the double‐γ‐esterified d4TTP prodrugs 6 were prone to a bond breakage between the γ‐ and β‐phosphate. […] In contrast to previous studies with TriPPPro‐NTPs 5 containing a second cleavable mask (first generation NTP prodrugs),[ ^23 , ^24 , ^25 ] no d4TTP was detected in these studies using 6 or 7. A side reaction occurred during the studies using compounds 7 that led to the formation of thymine by the cleavage of the glycosidic bond as reported before.[ ^19 , ^22 ]
(§1) ProLab 300 from Schott Co.. Thermomixer: Eppendorf Thermomixer 5436 and CellMedia Thermoschüttler basic were used. […]
Chemical hydrolysis of prodrugs of γ-(AB,alkyl) d4TTP 6 as well as the γ-alkyl-NTPs 7,15:
Stock solutions (50mM in DMSO-d6) of compounds 6,7 were prepared. After dilution of 11 µL stock solution with 100 µL milliQ water and 189 µL DMSO-d6 to 1.9mM hydrolysis solutions the reaction was started by addition of 300 µL phosphate buffer saline (PBS, 50mM, pH 7.3). The solution was incubated at 37 C in a thermomixer. An initial aliquot (25 µL) was taken directly and analyzed by analytical HPLC at 265-266 nm. Further aliquots were taken for monitoring the kinetic hydrolysis. The exponential decay curves (pseudo-first order) based on absolute integral values were calculated with commercially available software (OriginPro 9.0G) and yielded the half-lives t1/2 of the prodrugs via one determination. […]
The calculation of t1/2 was performed analogously to that for the chemical hydrolysis studies.
(§2) Preparation of cell extracts: Human CD4+ T-lymphocyte CEM cells were grown in RPMI-1640-based cell culture medium to a final density of ~3·10^6 cells/ml. Then, cells were centrifuged for 10 min at 1,250 rpm at 4 °C, washed twice with cold PBS, and the pellet was re-suspended at 10^8 cells/ml and sonicated (Hielscher Ultrasound Techn., 100% amplitude, 3·times for 10 sec) to destroy cell integrity. The resulting cell suspension was then centrifuged at 10,000 rpm to remove cell debris, and the supernatant divided in aliquots before being frozen at -80 C and used.
(1 picture or pasted object on this page, not shown here)

[2] = Enzyme-catalyzed hydrolysis in human CD4+ T-lymphocyte CEM cell extracts; type: in vitro ADME; conditions: for half-life at 0.86 mM: CEM/0 cell extracts (CD4+ T-lymphocytes), human CD4+ T-lymphocyte CEM cell extracts, 37 °C, read-out: CEM/0 cell extracts t 1/2 (converted)
Protocol: The stability of prodrugs 6 and the γ‐alkyl‐NTPs 7 was further investigated in human CD4 ^+ T‐lymphocyte CEM cell extracts. […] Thus, an enzymatic cleavage reaction took place. Half‐lives as low as 0.4 h (6 az) to 5.2 h (6 dz) were determined. […] This is in accordance to our previous results for the DiPPro‐[ ^17 , ^18 ] or the TriPPPro‐compounds 5.[ ^22 , ^23 ] In all cases we observed the predominant formation of γ‐alkyl‐d4TTPs 7 and d4TDP 2 d in very low concentration (Figure 2 B) but no NTP formation was detected, in contrast to the studies using the previously described TriPPPro compounds 5.[ ^23 , ^24 ] However, the difference to the compounds bearing long lipophilic acyl groups was not very pronounced (2‐ to 3‐fold). In the case of γ‐(AB‐C4,alkyl‐C18)‐d4TTP 6 cz, γ‐C18‐d4TTP 7 z was detected as the main product. After 8 h incubation, the ratio of γ‐C18‐d4TTP 7 z and d4TDP 2 d was 5:1. This was in sharp contrast to the studies performed with TriPPPro compounds 5.[ ^23 , ^24 ] There, it was almost impossible to detect significant concentrations of d4TTP due to its fast dephosphorylation to form first d4TDP and finally d4TMP 2 m. […] The formation of thymine or d4TTP 2 t from γ‐C18‐d4TTP 7 z was not detected (Supporting Information, Figure SI2).
as §1
Enzyme-catalyzed hydrolysis of γ-(AB,alkyl)-d4TTPs 6, γ-alkyl-d4TTPs 7,15 and TriPPPros 5 in CEM cell extracts:
18 µL of the appropriate 50 mM DMSO-d6 stock solution was diluted to 6.0 mM hydrolysis solution by addition of 132.0 µL DMSO-d6.
7-10 different samples including 10 µL water and 10 µL hydrolysis solution were prepared in 2 mL Eppendorf® vials. The reaction was started by addition of 50 µL human CEM cell extract and the mixture was incubated at 37 °C for different time periods. The reactions were stopped by addition of 150 μL MeOH. The solution was kept on ice for 5 min followed by centrifugation for 5 min (13000 rpm).
The supernatants were filtered (Chromafil® RC-20/15 MS, 0.2 μm) and stored in liquid nitrogen. When testing, the samples were defrosted and injection volume with 80 μL was used for HPLC analysis. The calculation of t1/2 was performed analogously to that for the chemical hydrolysis studies.
as §2

HIV-1(IIIB) = assay: Anti-HIV activity assay, HIV-1-infected wild-type CEM/0 cell cultures; type: cell-based; conditions: Human immunodeficiency virus 1, IIIB, CCRF-CEM; wild-type CEM/0 cells, HIV-1; mean±SD, n=2-3; read-out: EC50 CEM/0 HIV-1
Protocol: (§3) γ‐(AB,alkyl)‐d4TTP prodrugs 6 and the γ‐alkyl‐d4TTPs 7 were evaluated for their ability to inhibit the replication of HIV in HIV‐1‐ or HIV‐2‐infected wild‐type CEM/0 as well as mutant thymidine‐kinase‐deficient CEM cell cultures (CEM/TK^−). For comparison, two TriPPPro derivatives 5 were also included in this assay.
(§4) Anti-HIV activity assay: Inhibition of HIV-1(IIIB)- and HIV-2(ROD)-induced cytopathicity in wild-type CEM/0 and thymidine kinase-deficient CEM/TK- cell cultures was measured in microtiter 96-well plates containing ~3·105 CEM cells/mL infected with 100 CCID50 of HIV per milliliter and containing appropriate dilutions of the test compounds. After 4−5 days of incubation at 37 °C in a CO2-controlled humidified atmosphere, CEM giant (syncytium) cell formation was examined microscopically. […]
(§5) was defined as the compound concentration required to inhibit HIV-induced giant cell formation by 50%. […]
(§6) The result was visualized by fluorescence imaging. […]
as §6

HIV-2(ROD) [3] = assay: Anti-HIV activity assay, HIV-2-infected wild-type CEM/0 cell cultures; type: cell-based; conditions: Human immunodeficiency virus 2, CCRF-CEM, read-out: EC50 CEM/0 HIV-2
Protocol: as §3, §4, §5, §6, §6

HIV-2(ROD) [4] = assay: Anti-HIV activity assay, HIV-2-infected thymidine-kinase-deficient CEM/TK- cell cultures; type: cell-based; conditions: for antiviral activity in CEM/TK− cell cultures (in words): HIV-2-infected CEM/TK− cells; for EC50: read-out: EC50 CEM/TK− HIV-2
Protocol: as §3, §4, §5, §6, §6

[5] = Cytotoxicity: inhibition of CD4+ T-cell (CEM) proliferation; type: cell-based; conditions: human, CEM/0 cells (CD4+ T-cells), 50 % cytostatic concentration, mean±SD, n=2-3
[6] = wild-type CEM/0 cells, HIV-2, mean±SD, n=2-3
[7] = Human immunodeficiency virus 2, thymidine-kinase-deficient CEM/TK− cells, HIV-2, mean±SD, n=2-3

Structure (SMILES) | half-life at 0.92 mM [1] | half-life at 0.86 mM [2] | EC50 (HIV-1(IIIB)) | EC50 (HIV-2(ROD) [3]; [6]) | EC50 (HIV-2(ROD) [4]; [7]) | stability in cell extracts (in words) ([2]; CEM cell extracts, incubation up to 30 h) | antiviral activity in CEM/TK− cell cultures (in words) (HIV-2(ROD) [4]) | CC50 [5] | EC50 (HIV-2(ROD) [3]) | EC50 (HIV-2(ROD) [4]; Human immunodeficiency virus 2, CEM-TK(-)) | EC50 (HIV-2(ROD) [4]; thymidine-kinase-deficient CEM/TK− cells, HIV-2, mean±SD, n=2-3) | EC50 (HIV-2(ROD) [4]; thymidine-kinase-deficient CEM/TK− cells, HIV-2, mean±SD, n=2-3, listed as d4T 1)
CCCCCCCCC(=O)Oc1ccc(COP(=O)(OCc2ccc(OC(=O)CCCCCCCC)cc2)OP(=O)(O)OP(=O)(O)OCC2C=CC(n3cc(C)c(=O)[nH]c3=O)O2)cc1 (stereo not drawn) [5 a, reference compound] | 52 h | 1.6 h | 310 ± 10 nM | 620 ± 300 nM | 2260 ± 1030 nM | – | active | 52000 ± 1000 nM | – | – | – | –
CCCCCCCCCCCCCCCCCC(=O)Oc1ccc(COP(=O)(OCc2ccc(OC(=O)CCCC)cc2)OP(=O)(O)OP(=O)(O)OCC2C=CC(n3cc(C)c(=O)[nH]c3=O)O2)cc1 (stereo not drawn) [5 b, reference compound] | 50 h | 3.3 h | 120 ± 50 nM | 100 ± 30 nM | 540 ± 410 nM | – | active | 33000 ± 7000 nM | – | – | – | –
CCCCCCCCCCCCCCCCCCOP(=O)(OCc1ccc(OC(C)=O)cc1)OP(=O)(O)OP(=O)(O)OCC1C=CC(n2cc(C)c(=O)[nH]c2=O)O1 (stereo not drawn) [6 az] | 196 h | 0.4 h | 220 ± 50 nM | 500 ± 140 nM | 390 ± 300 nM | – | – | 17000 ± 5000 nM | – | – | – | –
CCCCCCCCCCCCCCCCCCOP(=O)(OCc1ccc(OC(=O)CC)cc1)OP(=O)(O)OP(=O)(O)OCC1C=CC(n2cc(C)c(=O)[nH]c2=O)O1 (stereo not drawn) [6 bz] | 206 h | 1.6 h | 190 ± 90 nM | – | – | – | – | 11000 ± 4000 nM | 250 nM | 350 ± 250 nM | – | –
Cc1cn([C@H]2C=C[C@@H](CO)O2)c(=O)[nH]c1=O [Compound 1, 3′‐deoxy‐2′,3′‐didehydrothymidine, reference compound] | – | – | 430 ± 250 nM | – | – | – | – | > 50000 nM | 220 ± 50 nM | – | > 50000 nM | 150000 nM

Continued, in another order:

half-life at 0.92 mM [1] | half-life at 0.86 mM [2] | EC50 (HIV-1(IIIB)) | EC50 (HIV-2(ROD) [3]; [6]) | EC50 (HIV-2(ROD) [4]; [7]) | stability in cell extracts (in words) ([2]; CEM cell extracts, incubation up to 30 h) | Structure (SMILES) | antiviral activity in CEM/TK− cell cultures (in words) (HIV-2(ROD) [4]) | CC50 [5] | EC50 (HIV-2(ROD) [3]) | EC50 (HIV-2(ROD) [4]; Human immunodeficiency virus 2, CEM-TK(-)) | EC50 (HIV-2(ROD) [4]; thymidine-kinase-deficient CEM/TK− cells, HIV-2, mean±SD, n=2-3) | EC50 (HIV-2(ROD) [4]; thymidine-kinase-deficient CEM/TK− cells, HIV-2, mean±SD, n=2-3, listed as d4T 1)
94 h | 0.7 h | 500 ± 210 nM | 670 ± 880 nM | 9740 ± 3440 nM | – | CCCCOP(=O)(OCc1ccc(OC(=O)CCCC)cc1)OP(=O)(O)OP(=O)(O)OCC1C=CC(n2cc(C)c(=O)[nH]c2=O)O1 (stereo not drawn) [6 cw] | marked loss of activity | 64000 ± 11000 nM | – | – | – | –
197 h | 3.4 h | 250 nM | 230 ± 180 nM | 390 ± 300 nM | – | CCCCCCCCCCCCCCCOP(=O)(OCc1ccc(OC(=O)CCCC)cc1)OP(=O)(O)OP(=O)(O)OCC1C=CC(n2cc(C)c(=O)[nH]c2=O)O1 (stereo not drawn) [6 cy] | – | 21000 ± 7000 nM | – | – | – | –
212 h | 3.6 h | 180 ± 10 nM | 160 ± 110 nM | 920 ± 120 nM | – | CCCCCCCCCCCCCCCOP(=O)(OCc1ccc(OC(=O)CCCCCC)cc1)OP(=O)(O)OP(=O)(O)OCC1C=CC(n2cc(C)c(=O)[nH]c2=O)O1 (stereo not drawn) [6 dy] | – | 18000 ± 4000 nM | – | – | – | –
269 h | 5.2 h | 170 nM | 210 ± 60 nM | 760 ± 110 nM | – | CCCCCCCCCCCCCCCCCCOP(=O)(OCc1ccc(OC(=O)CCCCCC)cc1)OP(=O)(O)OP(=O)(O)OCC1C=CC(n2cc(C)c(=O)[nH]c2=O)O1 (stereo not drawn) [6 dz] | – | 27000 ± 4000 nM | – | – | – | –
249 h | 2.5 h | 620 ± 300 nM | 860 ± 40 nM | 3900 ± 3400 nM | – | CCCCCCCCCCCCCCCOP(=O)(OCc1ccc(OC(=O)CCCCCCCCCCCCCCC)cc1)OP(=O)(O)OP(=O)(O)OCC1C=CC(n2cc(C)c(=O)[nH]c2=O)O1 (stereo not drawn) [6 ey] | – | 48000 ± 31000 nM | – | – | – | –
– | – | – | – | – | rapidly enzymatically dephosphorylated | Cc1cn([C@H]2C[C@H](O)[C@@H](COP(=O)(O)OP(=O)(O)OP(=O)(O)O)O2)c(=O)[nH]c1=O [TTP, reference compound] | – | – | – | – | – | –

Reference: article PMC7756582, “Prodrugs of γ‐Alkyl‐Modified Nucleoside Triphosphates: Improved Inhibition of HIV Reverse Transcriptase” (Angewandte Chemie (International Ed. in English), 2020)
